Data on three compounds can be found in patent US12221428B2, “Use of deuterated empathogens as therapeutic agents” (priority 2021, dated 2025).

The target of one data set is CYP2D6 (Homo sapiens, UniProt P10635). The settings on record: cited from earlier work.
The next data set concerns the target T1, DAT (Homo sapiens, UniProt Q01959).
T1 construct: expressed in transfected cells
Kind of data set: Neurotransmitter Transporter Uptake Assay, DAT blocker mode. In kind it is cell-based.

The target of the next data set is T2, NET (Homo sapiens, UniProt P23975).
T2 construct: expressed in transfected cells
Kind of data set: Neurotransmitter Transporter Uptake Assay, NET blocker mode. In kind it is cell-based. The procedure:
Methods—Monoamine Transporter Assay: Neurotransmitter uptake via transporters was measured using the Neurotransmitter Transporter Uptake Assay Kit from Molecular Devices. Dopamine, norepinephrine or serotonin transporter activity in cells was detected using a homogeneous fluorescence based assay. Increased intracellular fluorescence intensity following uptake of biogenic amine neurotransmitters via transporters is measured and can be run in a kinetic or endpoint mode.
To determine percentage inhibition of neurotransmitter uptake via transporter, cell lines were expanded from freezer stocks, seeded into a multi-well microplate, and incubated at 37° C. Then, the compound was administered and the mix was incubated again. Following compound incubation, dye was added to the wells and the plate was re-incubated. Microplates were then transferred to a PerkinElmer Envision™ instrument for fluorescence signal detection.
Compound activity was analyzed using CBIS data analysis (ChemInnovation, CA). For blocker mode assays, percentage inhibition was calculated using the following formula: % Inhibition=100%×(1−(mean RLU of test sample−mean RLU of vehicle control)/(mean RLU of positive control−mean RLU of vehicle control)).

The target in data set [1] is T3, serotonin receptor 2B (HTR2B) (Homo sapiens, UniProt P41595).
T3 construct: expressed in transfected cells
Kind of data set: Calcium No Wash Plus calcium mobilization assay, HTR2B antagonist mode. In kind it is cell-based. (A change in cytosolic calcium serves as a functional read-out for many receptors and channels.)
Protocol: Methods—Calcium Mobilization: GPCR activity of serotonin receptor 2B (HTR2B), among others, was measured using the Calcium No Wash^Plus assay, which monitors calcium mobilization in cell lines expressing Gq-coupled GPCRs by loading a calcium-sensitive dye into cells.
Cell lines were expanded from freezer stocks and seeded into multi-well microplates. Then, the plates were incubated at 37° C. for an appropriate amount of time and loaded with Dye Loading buffer. To determine compound agonist activity, cells were incubated with the sample to induce a response, and HBSS/20 mM Hepes was added using a FLIPR Tetra (MDS). Activity was measured on a FLIPR Tetra. Calcium mobilization was monitored for 2 minutes.
To determine compound antagonist activity, cells were pre-incubated with the sample followed by an post-incubation administration of the compound with 3×EC80 agonist using FLIPR. Compound antagonist activity was measured on a FLIPR Tetra (MDS) and calcium mobilization was monitored for 2 minutes.
Compound activity was analyzed using CBIS data analysis suite (ChemInnovation, CA). For agonist mode assays, percentage activity was calculated using the following formula: % Activity=100%×(mean RFU of test sample−mean RFU of vehicle control)/(mean MAX RFU control ligand −mean RFU of vehicle control). […]

The target of another data set is T4, HTR1B (Homo sapiens, UniProt P28222).
T4 construct: expressed in transfected cells
Kind of data set: Hit Hunter cAMP assay, HTR1B agonist mode. In kind it is cell-based. (In general: Cyclic AMP is a second messenger, typically raised through Gs and lowered through Gi signalling.)

Data set [2] has as its target T5, nicotinic acetylcholine receptor nAChR (a4/b2) (Homo sapiens, UniProt P17787+P43681).
T5 construct: expressed in transfected cells
Kind of data set: FLIPR Membrane Potential ion channel assay, nAChR (a4/b2) blocker. The settings on record: read-out: EC50/IC50. In kind it is cell-based. The procedure:
Methods—Ion Channel Assay: Membrane potential changes were measured using the FLIPR® Membrane potential Assay Kit. A fluorescent indicator dye in combination with a quencher is used to reflect real-time membrane potential changes associated with ion channel activation and ion transporter proteins.
To determine agonist and antagonist activity, cell lines were expanded from freezer stocks, seeded into multi-well microplates, and incubated at 37° C. Cells were then loaded with dye and incubated again.
For agonist determination, cells were incubated with the sample a different dilutions to induce a response. For antagonist determination, cells were pre-incubated with the sample at different dilutions. Following dye administration, the sample was added to the cells in the presence of EC80 agonist and then re-incubated at room temperature in the dark.
Compound activity was analyzed using CBIS data analysis suite (ChemInnovation, CA). For agonist mode assays, percentage activity was calculated using the following formula: % Activity=100%×(mean RLU of test sample−mean RLU of vehicle control)/(mean MAX control ligand−mean RLU of vehicle control).
For antagonist mode assays, percentage inhibition was calculated using the following formula: % Inhibition=100%×(1−(mean RLU of test sample−mean RLU of vehicle control)/(mean RLU of EC80 control−mean RLU of vehicle control)).

For data set [3] the following is noted: cited from earlier work.
The conditions of data set [4]: cited from earlier work. This is another data set of the same source.

T5 sequence (P43681 29-627 limits assumed): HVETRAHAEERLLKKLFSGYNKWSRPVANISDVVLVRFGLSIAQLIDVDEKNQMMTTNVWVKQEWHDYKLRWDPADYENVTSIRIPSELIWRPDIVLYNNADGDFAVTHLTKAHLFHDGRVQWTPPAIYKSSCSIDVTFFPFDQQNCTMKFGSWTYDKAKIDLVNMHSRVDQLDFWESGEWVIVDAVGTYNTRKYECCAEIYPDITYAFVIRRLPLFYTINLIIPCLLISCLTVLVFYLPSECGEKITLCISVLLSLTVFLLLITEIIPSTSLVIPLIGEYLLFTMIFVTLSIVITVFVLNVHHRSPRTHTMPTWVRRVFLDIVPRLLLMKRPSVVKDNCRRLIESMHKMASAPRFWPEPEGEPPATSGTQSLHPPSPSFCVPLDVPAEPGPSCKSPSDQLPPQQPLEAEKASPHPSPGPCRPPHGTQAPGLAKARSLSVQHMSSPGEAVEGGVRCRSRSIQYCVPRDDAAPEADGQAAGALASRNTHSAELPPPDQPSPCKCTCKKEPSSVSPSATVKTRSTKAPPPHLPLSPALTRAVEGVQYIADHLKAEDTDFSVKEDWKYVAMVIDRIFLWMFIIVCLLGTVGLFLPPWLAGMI
T5 sequence (P17787 26-502): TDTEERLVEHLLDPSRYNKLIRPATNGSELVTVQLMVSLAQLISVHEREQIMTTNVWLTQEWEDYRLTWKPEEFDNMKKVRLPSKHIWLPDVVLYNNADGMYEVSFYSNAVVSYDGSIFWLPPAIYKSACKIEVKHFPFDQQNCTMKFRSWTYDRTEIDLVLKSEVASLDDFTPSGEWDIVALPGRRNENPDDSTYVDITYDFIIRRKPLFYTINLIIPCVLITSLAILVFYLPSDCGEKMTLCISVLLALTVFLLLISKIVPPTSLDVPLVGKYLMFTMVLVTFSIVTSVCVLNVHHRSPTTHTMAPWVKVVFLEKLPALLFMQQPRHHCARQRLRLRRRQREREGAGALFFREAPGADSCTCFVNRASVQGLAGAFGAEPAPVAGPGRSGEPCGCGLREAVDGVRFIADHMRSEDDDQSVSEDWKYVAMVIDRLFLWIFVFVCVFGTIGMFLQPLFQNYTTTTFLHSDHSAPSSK
T4 sequence (P28222 whole entry, species assumed): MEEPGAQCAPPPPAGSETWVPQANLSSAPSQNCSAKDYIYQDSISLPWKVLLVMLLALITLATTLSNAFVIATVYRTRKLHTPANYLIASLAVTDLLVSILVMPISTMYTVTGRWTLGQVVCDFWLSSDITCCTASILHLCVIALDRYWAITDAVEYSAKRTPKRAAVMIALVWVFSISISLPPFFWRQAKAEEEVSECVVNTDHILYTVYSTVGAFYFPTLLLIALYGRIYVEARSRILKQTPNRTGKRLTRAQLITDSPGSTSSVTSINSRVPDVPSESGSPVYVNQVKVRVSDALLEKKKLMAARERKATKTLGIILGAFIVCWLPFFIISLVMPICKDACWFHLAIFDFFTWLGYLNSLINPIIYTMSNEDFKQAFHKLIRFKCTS
T3 sequence (P41595 whole entry, species assumed): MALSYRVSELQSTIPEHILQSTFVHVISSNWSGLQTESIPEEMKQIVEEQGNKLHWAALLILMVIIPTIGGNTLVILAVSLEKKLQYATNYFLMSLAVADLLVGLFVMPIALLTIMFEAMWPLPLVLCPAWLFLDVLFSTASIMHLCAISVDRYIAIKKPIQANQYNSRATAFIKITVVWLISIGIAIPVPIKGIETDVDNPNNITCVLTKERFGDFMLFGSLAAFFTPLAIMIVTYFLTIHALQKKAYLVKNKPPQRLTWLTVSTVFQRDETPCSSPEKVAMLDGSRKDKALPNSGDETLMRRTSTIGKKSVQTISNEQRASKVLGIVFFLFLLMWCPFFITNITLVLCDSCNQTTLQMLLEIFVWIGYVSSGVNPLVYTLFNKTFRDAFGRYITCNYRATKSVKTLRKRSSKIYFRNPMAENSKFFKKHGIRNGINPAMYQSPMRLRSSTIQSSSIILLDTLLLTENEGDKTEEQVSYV
T2 sequence (P23975 whole entry): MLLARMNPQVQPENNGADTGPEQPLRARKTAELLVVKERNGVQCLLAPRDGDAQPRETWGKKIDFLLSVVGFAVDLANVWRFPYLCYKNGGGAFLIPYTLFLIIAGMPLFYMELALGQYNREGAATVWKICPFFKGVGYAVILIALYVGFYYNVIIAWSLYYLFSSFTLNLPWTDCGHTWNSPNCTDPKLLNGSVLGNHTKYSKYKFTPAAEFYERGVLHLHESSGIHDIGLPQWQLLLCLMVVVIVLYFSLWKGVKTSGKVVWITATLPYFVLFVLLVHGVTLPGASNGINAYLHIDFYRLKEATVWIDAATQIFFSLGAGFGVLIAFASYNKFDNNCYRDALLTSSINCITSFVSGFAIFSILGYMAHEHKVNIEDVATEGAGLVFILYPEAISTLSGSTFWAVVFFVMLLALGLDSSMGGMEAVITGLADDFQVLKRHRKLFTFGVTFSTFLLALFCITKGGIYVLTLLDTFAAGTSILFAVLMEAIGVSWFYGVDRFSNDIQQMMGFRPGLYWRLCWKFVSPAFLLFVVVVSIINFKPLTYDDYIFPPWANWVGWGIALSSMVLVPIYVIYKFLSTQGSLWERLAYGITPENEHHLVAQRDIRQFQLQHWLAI
T1 sequence (Q01959 whole entry, species assumed): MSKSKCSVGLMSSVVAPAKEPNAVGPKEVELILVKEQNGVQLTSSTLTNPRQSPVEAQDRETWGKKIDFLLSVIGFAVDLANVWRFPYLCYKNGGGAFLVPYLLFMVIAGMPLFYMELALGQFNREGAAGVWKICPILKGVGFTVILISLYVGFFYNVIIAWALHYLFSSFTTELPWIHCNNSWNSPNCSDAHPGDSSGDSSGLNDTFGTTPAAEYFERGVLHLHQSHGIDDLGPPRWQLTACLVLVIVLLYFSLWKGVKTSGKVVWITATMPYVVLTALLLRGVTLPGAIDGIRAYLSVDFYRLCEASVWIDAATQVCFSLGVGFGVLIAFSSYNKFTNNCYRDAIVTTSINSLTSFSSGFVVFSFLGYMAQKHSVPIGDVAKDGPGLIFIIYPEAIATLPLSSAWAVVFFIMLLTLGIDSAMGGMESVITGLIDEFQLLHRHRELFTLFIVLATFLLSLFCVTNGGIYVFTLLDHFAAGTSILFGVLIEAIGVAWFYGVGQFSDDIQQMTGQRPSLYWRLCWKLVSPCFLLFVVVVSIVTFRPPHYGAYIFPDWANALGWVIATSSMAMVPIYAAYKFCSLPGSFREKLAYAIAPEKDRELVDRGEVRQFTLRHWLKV
Chain of CYP2D6 (P10635 whole entry): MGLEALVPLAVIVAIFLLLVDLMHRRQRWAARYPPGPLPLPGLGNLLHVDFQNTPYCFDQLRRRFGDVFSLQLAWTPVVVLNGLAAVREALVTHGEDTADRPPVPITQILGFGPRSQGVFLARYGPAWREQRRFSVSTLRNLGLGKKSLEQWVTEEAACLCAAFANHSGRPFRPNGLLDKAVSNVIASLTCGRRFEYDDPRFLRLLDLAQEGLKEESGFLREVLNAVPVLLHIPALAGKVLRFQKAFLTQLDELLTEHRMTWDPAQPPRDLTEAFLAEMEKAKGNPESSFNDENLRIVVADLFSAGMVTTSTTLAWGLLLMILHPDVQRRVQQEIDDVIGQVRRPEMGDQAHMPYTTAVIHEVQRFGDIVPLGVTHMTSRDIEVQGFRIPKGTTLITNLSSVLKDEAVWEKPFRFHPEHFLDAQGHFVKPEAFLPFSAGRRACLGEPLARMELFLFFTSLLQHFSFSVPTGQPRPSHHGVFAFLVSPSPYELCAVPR
Protocol for HTR1B: Methods—cAMP: Activation of HTR1B and GRM2, among other targets, was determined using the Hit Hunter® cAMP assay. The assay monitors the activation of a GPCR via Gi and Gs secondary messenger signaling, using β-Gal as a functional reporter.
To determine agonistic activity at Gi/Gs, cells were expanded from freezer stocks, seeded into multi-well plates, and incubated at 37° C. prior to addition of a test compound. To determine Gi/Gs agonism, media was aspirated from cells and replaced with 15 μL 2:1 HBSS/10 mM HEPES:cAMP XS+Ab reagent. Concentrated (4×) test compound in assay buffer was added to cells and incubated at 37° C. or room temperature for 30 or 60 minutes. For Gi agonist activation, cells were incubated with EC80 forskolin in addition to a test compound. Vehicle concentration was 1%.
For Gs agonist mode assays, percentage activity was calculated using the following formula: % Activity=100%×(mean RLU of test sample−mean RLU of vehicle control)/(mean RLU of MAX control−mean RLU of vehicle control).
For Gi agonist mode assays, percentage activity was calculated using the following formula: % Activity=100%×(1−(mean RLU of test sample−mean RLU of MAX control)/(mean RLU of vehicle control−mean RLU of MAX control)).

The term EC50 denotes the concentration at which the effect is half-maximal. Read a high EC50 as a need for much substance. On to `CNC(C)Cc1ccc2c(c1)OCO2` (stereo not drawn) [MDMA, 3,4-methylenedioxymethamphetamine], for which the CYP2D6 inhibition result at CYP2D6 is recorded as “inhibit CYP2D6”. The IC50 at DAT was determined as 9.84 µM; against NET, 2.49 µM; in data set [1] it was 5.34 µM; in data set [2], 3.19 µM. At HTR1B, this compound returned an EC50 of 4.71 µM. In addition, the “efficacy in severe PTSD” value in data set [3] (MDMA-assisted therapy compared to therapy with inactive placebo) is “highly efficacious”. In addition, in data set [3] (individuals with severe PTSD, even with comorbidities), the safety and tolerability entry is “safe and well-tolerated”.

`[2H]C([2H])([2H])NC(C)Cc1ccc2c(c1)OCO2` (stereo not drawn) [MDMA-d3]: the IC50 against DAT was found to be 7.57 µM; at NET it was 3.87 µM; in data set [1], 4.2 µM; in data set [2], 4.38 µM. The compound further gave a 50% effective concentration (EC50) at HTR1B of 2.99 µM.

For the compound `[2H]C1([2H])Oc2ccc(CC(C)NC)cc2O1` (stereo not drawn) [d2-MDMA], in data set [4] (deuterium substitution at the methylenedioxy ring moiety), the interoceptive effects result is “does not impact MDMA's interoceptive effects”. For the same compound, the hyperthermic effects entry in data set [4] (in vivo) is “reduced potential for producing hyperthermic effects”.
